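Assay format: 96-well plates, 48-hour exposure. GI50 marks 50% less growth.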 Activity calls are given as the source filed them. Cut-off read from the data, not from the text of the source: active = GI50 up to about 1.1 µM and inactive = higher.
Legend:
Test in all cases: NCI-60 cell line screen, 48 h
786-0 = test system: 786-0
A498 = test system: A498
ACHN = test system: ACHN
EKVX = test system: EKVX
HL-60 = test system: HL-60
K562 = test system: K562
LOX IMVI = test system: LOX IMVI
Malme-3M = test system: Malme-3M
NCI-H226 = test system: NCI-H226
OVCAR-4 = test system: OVCAR-4
SF-295 = test system: SF-295
SF-539 = test system: SF-539
SK-MEL-28 = test system: SK-MEL-28
SK-MEL-2 = test system: SK-MEL-2
SNB-19 = test system: SNB-19
SNB-75 = test system: SNB-75
SR = test system: SR
UACC-257 = test system: UACC-257
UO-31 = test system: UO-31
OVCAR-5 = test system: OVCAR-5

SMILES | GI50 (786-0) | GI50 (A498) | GI50 (ACHN) | GI50 (EKVX) | GI50 (HL-60) | GI50 (K562) | GI50 (LOX IMVI) | GI50 (Malme-3M) | GI50 (NCI-H226) | GI50 (OVCAR-4) | GI50 (SF-295) | GI50 (SF-539) | GI50 (SK-MEL-28) | GI50 (SK-MEL-2) | GI50 (SNB-19) | GI50 (SNB-75) | GI50 (SR) | GI50 (UACC-257) | GI50 (UO-31) | GI50 (OVCAR-5)
COc1cc2c(c(OC)c1OC)-c1ccc(SC)c(=O)cc1C(CC(=O)Oc1cccc([N+](=O)[O-])c1)C2 (configuration not stated) | 0.473 µM (active) | 0.0277 µM (active) | 0.891 µM (active) | 3.38 µM (inactive) | 0.255 µM (active) | 0.344 µM (active) | 0.867 µM (active) | 0.36 µM (active) | 0.764 µM (active) | 5.66 µM (inactive) | 0.342 µM (active) | 0.263 µM (active) | 0.546 µM (active) | 0.713 µM (active) | 4.62 µM (inactive) | 0.268 µM (active) | 0.459 µM (active) | 2.89 µM (inactive) | 2.76 µM (inactive) | –
C=C1CC2CC[C@@]34C[C@H]5O[C@@H]6C(O[C@H]7CC[C@H](CC(=O)OC8[C@H](C)C9OC%10C[C@]%11(C[C@@H]%12O[C@]%13(C[C@H](C)[C@@H]%14O[C@H]([C@H](O)C[C@H](O)CO)C[C@@H]%14O%13)C[C@H](C)[C@@H]%12O%11)OC%10CC9O[C@H]8C[C@H]8O[C@H](CC[C@@H]1O2)C[C@@H](C)C8=C)O[C@H]7[C@@H]6O3)[C@@H]5O4 (some centres not stated) | 0.00246 µM (active) | 0.00108 µM (active) | 0.00411 µM (active) | 0.000141 µM (active) | 0.000237 µM (active) | 0.000484 µM (active) | 0.000597 µM (active) | 0.00131 µM (active) | 0.00231 µM (active) | 0.00505 µM (active) | 0.00046 µM (active) | 0.000676 µM (active) | 0.00219 µM (active) | 0.00149 µM (active) | 0.00191 µM (active) | 0.000321 µM (active) | 0.000498 µM (active) | 0.0008 µM (active) | 0.00539 µM (active) | 0.00845 µM (active)
CC1(C)CC[C@]2(C(=O)O)CC[C@]3(C)[C@H](C(=O)C=C4[C@@]5(C)C=C(C#N)C(=O)C(C)(C)[C@@H]5CC[C@]43C)[C@@H]2C1 [BARDOXOLONE] | 0.16 µM (active) | 0.391 µM (active) | 0.543 µM (active) | 1.34 µM (inactive) | 0.205 µM (active) | 0.263 µM (active) | 0.0944 µM (active) | 0.224 µM (active) | 0.416 µM (active) | 1.03 µM (active) | 0.573 µM (active) | 0.569 µM (active) | 0.16 µM (active) | 1 µM (active) | 0.303 µM (active) | 0.45 µM (active) | 0.0561 µM (active) | 1.14 µM (inactive) | 1.06 µM (active) | 0.488 µM (active)
COC(=O)c1ccccc1C1CN=NC12Cc1ccc(C)cc1C2=O (configuration not stated) | > 100 µM (inactive) | > 100 µM (inactive) | > 100 µM (inactive) | 65.8 µM (inactive) | 33.3 µM (inactive) | 46.6 µM (inactive) | 48.1 µM (inactive) | 86.5 µM (inactive) | 73.1 µM (inactive) | 32.8 µM (inactive) | 46.8 µM (inactive) | > 100 µM (inactive) | 67.8 µM (inactive) | 28.5 µM (inactive) | 70.3 µM (inactive) | 90.6 µM (inactive) | 63.8 µM (inactive) | 93.1 µM (inactive) | 34.7 µM (inactive) | > 100 µM (inactive)
N#Cc1nc(C#N)n(S(=O)(=O)c2ccccc2)c1NS(=O)(=O)c1ccccc1 | > 100 µM (inactive) | > 100 µM (inactive) | > 100 µM (inactive) | > 53.2 µM (inactive) | > 100 µM (inactive) | > 100 µM (inactive) | > 100 µM (inactive) | > 100 µM (inactive) | > 100 µM (inactive) | > 100 µM (inactive) | > 100 µM (inactive) | > 100 µM (inactive) | > 100 µM (inactive) | > 31.6 µM (inactive) | > 100 µM (inactive) | > 65.3 µM (inactive) | > 38.1 µM (inactive) | > 100 µM (inactive) | 27 µM (inactive) | > 100 µM (inactive)
Cc1c2ccccc2c(C)c2c3c(ccc12)C(=O)C=CC3=O | 25.7 µM (inactive) | > 100 µM (inactive) | 17.8 µM (inactive) | 30.2 µM (inactive) | 2.15 µM (inactive) | 11.3 µM (inactive) | 25.8 µM (inactive) | 29 µM (inactive) | > 89.5 µM (inactive) | 23.4 µM (inactive) | 24.7 µM (inactive) | 35.6 µM (inactive) | 30.7 µM (inactive) | 45.7 µM (inactive) | > 100 µM (inactive) | > 63.5 µM (inactive) | 8.36 µM (inactive) | 16.3 µM (inactive) | 18.2 µM (inactive) | > 100 µM (inactive)
Cc1cccc(/C=N/NC(=S)NC2CCCCC2)n1 | 20 µM (inactive) | 28.1 µM (inactive) | 25.8 µM (inactive) | 22.4 µM (inactive) | 2.86 µM (inactive) | 4.61 µM (inactive) | 14 µM (inactive) | 16.2 µM (inactive) | 15.7 µM (inactive) | 17.3 µM (inactive) | 29 µM (inactive) | 27.7 µM (inactive) | 46.7 µM (inactive) | 24.1 µM (inactive) | 34.8 µM (inactive) | 45.3 µM (inactive) | 4.76 µM (inactive) | 17.3 µM (inactive) | 18.7 µM (inactive) | 15.2 µM (inactive)
CC(=O)N(C)c1ccc2ncccc2c1[N+](=O)[O-] | > 100 µM (inactive) | > 100 µM (inactive) | > 100 µM (inactive) | > 100 µM (inactive) | > 100 µM (inactive) | > 100 µM (inactive) | > 100 µM (inactive) | > 100 µM (inactive) | > 100 µM (inactive) | > 100 µM (inactive) | > 100 µM (inactive) | > 100 µM (inactive) | > 100 µM (inactive) | > 100 µM (inactive) | > 100 µM (inactive) | > 100 µM (inactive) | > 100 µM (inactive) | > 100 µM (inactive) | > 100 µM (inactive) | > 100 µM (inactive)
C=C1[C@H](OC(=O)C(C)C)[C@]23CC4(O)[C@@H]5[C@@]6(C)CCC[C@]57C([C@@H]2C[C@@]1(O)[C@H](O)[C@@H]73)N4C6 | > 100 µM (inactive) | > 100 µM (inactive) | 72.8 µM (inactive) | > 100 µM (inactive) | > 100 µM (inactive) | – | > 100 µM (inactive) | > 100 µM (inactive) | > 100 µM (inactive) | > 100 µM (inactive) | > 100 µM (inactive) | > 100 µM (inactive) | > 100 µM (inactive) | > 100 µM (inactive) | > 100 µM (inactive) | > 100 µM (inactive) | > 100 µM (inactive) | > 100 µM (inactive) | > 100 µM (inactive) | > 100 µM (inactive)
COc1ccc(C#CCC(OC2OC(CO)C(O)C(O)C2O)C(O)c2ccc(OC)c(OC)c2)cc1OC (configuration not stated) | > 100 µM (inactive) | > 100 µM (inactive) | > 100 µM (inactive) | 81.3 µM (inactive) | 61.1 µM (inactive) | 57.4 µM (inactive) | 22.8 µM (inactive) | > 100 µM (inactive) | > 100 µM (inactive) | > 100 µM (inactive) | > 100 µM (inactive) | > 100 µM (inactive) | > 100 µM (inactive) | > 100 µM (inactive) | > 100 µM (inactive) | > 100 µM (inactive) | > 100 µM (inactive) | > 100 µM (inactive) | > 100 µM (inactive) | > 100 µM (inactive)
BrC(Br)=C1C(=C(Br)Br)C(Br)C1Br (configuration not stated) | 0.163 µM (active) | 1.06 µM (active) | 0.152 µM (active) | 2.08 µM (inactive) | < 0.0125 µM (active) | 0.158 µM (active) | 0.0706 µM (active) | 0.418 µM (active) | 0.275 µM (active) | 2.51 µM (inactive) | 0.778 µM (active) | 0.811 µM (active) | 1.1 µM (active) | 0.789 µM (active) | 1.95 µM (inactive) | 1.69 µM (inactive) | 0.043 µM (active) | 1.75 µM (inactive) | 0.701 µM (active) | 1.69 µM (inactive)
O=S(=O)(Cc1ccccc1)SCc1ccccc1 | 22.7 µM (inactive) | 25.3 µM (inactive) | 39.6 µM (inactive) | 30.2 µM (inactive) | 5.07 µM (inactive) | 4.91 µM (inactive) | 16.6 µM (inactive) | 27.3 µM (inactive) | 24.5 µM (inactive) | 21.2 µM (inactive) | 24.7 µM (inactive) | 18.3 µM (inactive) | 34.1 µM (inactive) | 30.4 µM (inactive) | 33.6 µM (inactive) | 33.9 µM (inactive) | 10.9 µM (inactive) | 24.3 µM (inactive) | 61.4 µM (inactive) | > 74 µM (inactive)
CC(=O)NNc1nc(C)c(C(/C=C/c2ccc([N+](=O)[O-])cc2)=N/NC(N)=S)s1 | > 100 µM (inactive) | > 100 µM (inactive) | > 100 µM (inactive) | > 100 µM (inactive) | > 100 µM (inactive) | – | > 100 µM (inactive) | > 100 µM (inactive) | > 100 µM (inactive) | > 100 µM (inactive) | > 100 µM (inactive) | > 100 µM (inactive) | > 100 µM (inactive) | > 100 µM (inactive) | > 100 µM (inactive) | > 100 µM (inactive) | > 100 µM (inactive) | > 100 µM (inactive) | > 100 µM (inactive) | > 100 µM (inactive)

Reference: ChEMBL document CHEMBL1201862, “PubChem BioAssay data set” (2004)
